From ChEMBL document CHEMBL5357074, “Cannabidiol-Based Prodrugs: Synthesis and Bioevaluation” (ACS Med Chem Lett, 2024)
Values after ≈ are worked out from the molar mass of the structure shown. Active and inactive are the calls of the source. The calls are words filed in the database; no cut-off is given here.

Legend:
[1] = Clearance in fasted Wistar rat at 75 mg/kg, po measured for 24 hrs by LCMS/MS analysis; format: ADME, organism-based; settings: in vivo
[2] = AUC (0 to infinity) in fasted Wistar rat at 75 mg/kg, po measured for 24 hrs by LCMS/MS analysis; format: ADME, organism-based; set-up: time 24 hrs, dose 75 mg/kg, route po; settings: in vivo
[3] = Oral bioavailability in Swiss mouse at 5 mg/kg measured for 24 hrs by LCMS/MS analysis; format: ADME, organism-based; settings: in vivo
[4] = Volume of distribution at steady state in fasted Wistar rat at 75 mg/kg, po measured for 24 hrs by LCMS/MS analysis; format: ADME, organism-based; settings: in vivo
[5] = Thermodynamic equilibrium solubility SGF at 1 to 1200 ug incubated for 4 hrs by absorbance based assay; format: physicochemical; settings: dose 1-1200 µg, read-out: Therm_solubility
[6] = Clearance in fasted Swiss mouse at 75 mg/kg, po measured for 24 hrs by LCMS/MS analysis; format: ADME, organism-based; settings: in vivo
in vivo [7] = settings: Wistar, rat, po, 75 mg/kg
Description: Tmax in fasted Wistar rat at 75 mg/kg, po measured for 24 hrs by LCMS/MS analysis

[8] = AUC (0 to infinity) in fasted Swiss mouse at 75 mg/kg, po measured for 24 hrs by LCMS/MS analysis; format: ADME, organism-based; set-up: dose 75 mg/kg, time 24 hrs, route po; settings: in vivo
[9] = Thermodynamic equilibrium solubility SIF at 1 to 1200 ug incubated for 4 hrs by absorbance based assay; format: physicochemical; settings: dose 1-1200 µg, read-out: Therm_solubility
[10] = Thermodynamic equilibrium solubility in water at 1 to 1200 ug incubated for 4 hrs by absorbance based assay; format: physicochemical; settings: dose 1-1200 µg, read-out: Therm_solubility
in vivo [11] = settings: Swiss, mouse, po, 75 mg/kg
Description: Tmax in fasted Swiss mouse at 75 mg/kg, po measured for 24 hrs by LCMS/MS analysis

[12] = Cmax in fasted Wistar rat at 75 mg/kg, po measured for 24 hrs by LCMS/MS analysis; format: ADME, organism-based; set-up: time 24 hrs, dose 75 mg/kg, route po; settings: in vivo
[13] = Chemical stability in water at 2 mg/ml incubated for 2 hrs by HPLC analysis; format: physicochemical; settings: read-out: Stability
[14] = AUC (0 to t) in fasted Swiss mouse at 75 mg/kg, po measured for 24 hrs by LCMS/MS analysis; format: ADME, organism-based; set-up: time 24 hrs, dose 75 mg/kg, route po; settings: in vivo
[15] = AUC (0 to t) in fasted Wistar rat at 75 mg/kg, po measured for 24 hrs by LCMS/MS analysis; format: ADME, organism-based; set-up: dose 75 mg/kg, time 24 hrs, route po; settings: in vivo
[16] = Chemical stability in SGF at 2 mg/ml incubated for 2 hrs by HPLC analysis; format: physicochemical; settings: read-out: Stability
[17] = Volume of distribution in fasted Swiss mouse at 75 mg/kg, po measured for 24 hrs by LCMS/MS analysis; format: ADME, organism-based; settings: in vivo
[18] = Cmax in fasted Swiss mouse at 75 mg/kg, po measured for 24 hrs by LCMS/MS analysis; format: ADME, organism-based; set-up: dose 75 mg/kg, time 24 hrs, route po; settings: in vivo
[19] = Chemical stability in SIF at 2 mg/ml incubated for 2 hrs by HPLC analysis; format: physicochemical; settings: read-out: Stability
[20] = Prodrug conversion in human plasma assessed as drug release measured after 24 hrs by HPLC analysis; format: ADME, cell-free
[21] = Prodrug conversion in human plasma assessed as formation of O-{2-(4-cyclopropylpiperazin-1-yl)acetyl}cannabidiol metabolite measured for 1 to 8 hrs by HPLC analysis; format: ADME, cell-free; settings: time 1-8 hrs
Mus musculus = experiment: Antiepileptic activity in MES Swiss Albino mouse model assessed as decrease in convulsion duration at 75 mg/kg, po equivalent to Cannabidiol pretreated for 30 mins followed by induction of epileptic seizures measured for 1 to 8 hrs; format: functional, organism-based; settings: time 1.5-8.5 hrs
[22] = Volume of distribution at steady state in fasted Wistar rat at 75 mg/kg, po equivalent to Cannabidiol measured for 24 hrs by LCMS/MS analysis; format: ADME, organism-based; settings: in vivo
[23] = Volume of distribution in fasted Swiss mouse at 75 mg/kg, po equivalent to Cannabidiol measured for 24 hrs by LCMS/MS analysis; format: ADME, organism-based; settings: in vivo
[24] = Prodrug conversion in human plasma assessed as formation of O-(2-morpholinoacetyl)cannabidiol metabolite measured for 1 hr by HPLC analysis; format: ADME, cell-free
[25] = Stability in Balb/C mouse plasma assessed as compound degradation at 10 uM incubated for 2 hrs by LC-MS/MS analysis; format: ADME, cell-free; settings: read-out: Drug degradation

`C=C(C)[C@@H]1CCC(C)=C[C@H]1c1c(O)cc(CCCCC)cc1O` [CANNABIDIOL] showed a CL/F [1] of 123 mL/min/kg, an AUC(0-inf) [2] of 10200 ng·h/mL and a bioavailability [3] of 24%. It also gave a Vdss [4] of 77 L/kg, a solubility thermodynamic at 4 h [5] of under 5 µg/mL and a CL/F [6] of 250 mL/min/kg. For the same molecule, the Tmax at 24 h (in vivo [7]) was 8 h, the AUC(0-inf) [8] was 4870 ng·h/mL and the solubility thermodynamic at 4 h [9] was under 5 µg/mL. The solubility thermodynamic at 4 h [10] was under 5 µg/mL, the Tmax at 24 h (in vivo [11]) was 2 h and the Cmax [12] was 728 ng/mL. For the same molecule, the remaining at 2 h, 2 mg/ml [13] was at least 74%, the AUC(0-t) at 24 h [14] was 4660 ng·h/mL and the AUC(0-t) at 24 h [15] was 9460 ng·h/mL. The remaining at 2 h, 2 mg/ml [16] was at least 74%, the Vd [17] was 137 L/kg and the Cmax [18] was 669 ng/mL. For the same molecule, the remaining at 2 h, 2 mg/ml [19] was at least 74%.
With `C=C(C)[C@@H]1CCC(C)=C[C@H]1c1c(O)cc(CCCCC)cc1OC(=O)CN1CCN(C)CC1` the Drug metabolism [20] was 59%.
For `C=C(C)[C@@H]1CCC(C)=C[C@H]1c1c(O)cc(CCCCC)cc1OC(=O)CN1CCC(O)CC1`, the Drug metabolism [20] was 73%.
For `C=C(C)[C@@H]1CCC(C)=C[C@H]1c1c(OC(=O)CN2CCN(C3CC3)CC2)cc(CCCCC)cc1OC(=O)CN1CCN(C2CC2)CC1`, the Drug metabolism [21] was “Metabolite_Detected” and the Drug metabolism [20] was 27%.
Molecule `C=C(C)[C@@H]1CCC(C)=C[C@H]1c1c(O)cc(CCCCC)cc1OC(=O)CN1CCCC1` has a Drug metabolism [20] of 74%.
`C=C(C)[C@@H]1CCC(C)=C[C@H]1c1c(OC(=O)CN2CCOCC2)cc(CCCCC)cc1OC(=O)CN1CCOCC1` showed a solubility thermodynamic at 4 h [5] of 4000 µg/mL (≈ 7030 µM), a solubility thermodynamic at 4 h [9] of 120 µg/mL (≈ 211 µM) and a solubility thermodynamic at 4 h [10] of 120 µg/mL (≈ 211 µM). For the same molecule, the Activity (Mus musculus) was “Active”, the Vdss [22] was 93 L/kg and the Drug metabolism [20] was 52%. The Vd [23] was 224 L/kg and the Drug metabolism [24] was “Metabolite_Detected”.
Molecule `CCOC(=O)[C@H](CCc1ccccc1)N[C@@H](C)C(=O)N1CCC[C@H]1C(=O)O` [ENALAPRIL] has a metabolised at 2 h, 10 µM [25] of over 80%.
Molecule `C=C(C)[C@@H]1CCC(C)=C[C@H]1c1c(O)cc(CCCCC)cc1OC(=O)CN1CCN(C2CC2)CC1` has a Drug metabolism [20] of 56%.
`C=C(C)[C@@H]1CCC(C)=C[C@H]1c1c(O)cc(CCCCC)cc1OC(=O)CN1CCC(c2ccccc2)CC1` gave a Drug metabolism [20] of 4.6%.
`C=C(C)[C@@H]1CCC(C)=C[C@H]1c1c(O)cc(CCCCC)cc1OC(=O)CN1CCN(C(C)C)CC1` showed a Drug metabolism [20] of 78%.
In the case of `O=C(/C=C/C=C/c1ccc2c(c1)OCO2)N1CCCCC1` [PIPERINE], the solubility thermodynamic at 4 h [5] is reported as 40 µg/mL (≈ 140 µM), the solubility thermodynamic at 4 h [9] is reported as 60 µg/mL (≈ 210 µM) and the solubility thermodynamic at 4 h [10] is reported as 40 µg/mL (≈ 140 µM).
`C=C(C)[C@@H]1CCC(C)=C[C@H]1c1c(O)cc(CCCCC)cc1OC(=O)CN1CCN(c2ccccc2)CC1` showed a Drug metabolism [20] of 9.2%.
With `O=C(O)CN1CCOCC1` the remaining at 2 h, 2 mg/ml [13] was at least 74% and the remaining at 2 h, 2 mg/ml [19] was at least 74%.
With `C=C(C)[C@@H]1CCC(C)=C[C@H]1c1c(O)cc(CCCCC)cc1OC(=O)CN1CCOCC1` the solubility thermodynamic at 4 h [5] was 400 µg/mL (≈ 906 µM), the solubility thermodynamic at 4 h [9] was 80 µg/mL (≈ 181 µM) and the solubility thermodynamic at 4 h [10] was 40 µg/mL (≈ 90.6 µM). The Vdss [22] was 32 L/kg, the Drug metabolism [20] was 84% and the Vd [23] was 108 L/kg.
